Test results: patent US20240059700A1, “NOVEL DIACYLGLYCERIDE O-ACYLTRANSFERASE 2 INHIBITORS” (Merck Sharp & Dohme LLC, priority 2020, published 2024)
pIC50: −log10 of the molar value.

Target: human DGAT2 (hDGAT2) (Homo sapiens (Human), UniProt Q96PD7)
Test: DGAT2 Enzymatic Activity Assay
Type: biochemical
Conditions: membrane prep of Sf-9 insect cells expressing hDGAT2; 13C18-triolein product by LC/MS/MS
Method in brief: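 Membranes from Sf-9 cells infected with untagged hDGAT2 baculovirus (8 ng/μL) incubated at rt in 100 mM Tris pH 7.0, 20 mM MgCl2, 5% ethanol with 25 μM diolein and 5 μM 13C oleoyl-CoA. 13C18-triolein product quantified by LC/MS/MS against 13C21-triolein internal standard; IC50 by 4-parameter fit.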

human DGAT2 (hDGAT2), sequence (Q96PD7 whole entry): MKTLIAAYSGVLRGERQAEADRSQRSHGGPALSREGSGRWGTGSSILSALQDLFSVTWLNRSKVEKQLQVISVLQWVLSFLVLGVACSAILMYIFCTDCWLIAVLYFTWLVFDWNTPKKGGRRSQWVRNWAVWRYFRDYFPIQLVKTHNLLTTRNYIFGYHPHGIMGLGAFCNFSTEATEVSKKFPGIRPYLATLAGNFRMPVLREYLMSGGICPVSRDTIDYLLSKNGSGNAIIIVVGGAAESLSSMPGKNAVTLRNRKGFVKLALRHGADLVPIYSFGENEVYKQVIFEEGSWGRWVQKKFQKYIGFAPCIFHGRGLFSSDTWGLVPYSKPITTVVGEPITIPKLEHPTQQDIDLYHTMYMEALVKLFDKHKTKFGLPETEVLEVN

pIC50 | SMILES
7.70 | CC(C)n1nc(-c2cc(OC(F)(F)F)ccc2F)c2ncc(C(=O)NC3(C)CCS(=O)(=O)CC3)cc21 [Example 118, 3-(2-fluoro-5-(trifluoromethoxy)phenyl)-1-isopropyl-N-(4-methyl-1,1-dioxidotetrahydro-2H-thiopyran-4-yl)-1H-pyrazolo[4,3-b]pyridine-6-carboxamide]
7.89 | Cc1cc(C(=O)N[C@@]2(C)CCS(=O)(=O)C2)cc2c1c(-c1cccc(OC(F)F)c1)nn2C1CCOCC1 [Example 84, (S)-3-(3-(difluoromethoxy)phenyl)-4-methyl-N-(3-methyl-1,1-dioxidotetrahydrothiophen-3-yl)-1-(tetrahydro-2H-pyran-4-yl)-1H-indazole-6-carboxamide]
7.59 | CC(C)n1nc(-c2cncc(OC(F)F)c2)c2ncc(C(=O)NC3(C)CS(=O)(=O)C3)cc21 [Example 95, 3-[5-(difluoromethoxy)-3-pyridyl]-1-isopropyl-N-(3-methyl-1,1-dioxo-thietan-3-yl)pyrazolo[4,3-b]pyridine-6-carboxamide]
6.73 | C[C@]1(NC(=O)c2cnc3c(-c4ccccc4Cl)cn(-c4ccc(F)cc4)c3c2)CCS(=O)(=O)C1 [Example 11, (S)-3-(2-chlorophenyl)-1-(4-fluorophenyl)-N-(3-methyl-1,1-dioxidotetrahydrothiophen-3-yl)-1H-pyrrolo[3,2-b]pyridine-6-carboxamide]
6.45 | C[C@@]1(NC(=O)c2cnc3c(-c4ccccc4Cl)cn(-c4ccc(F)cc4)c3c2)CCS(=O)(=O)C1 [Example 12, (R)-3-(2-chlorophenyl)-1-(4-fluorophenyl)-N-(3-methyl-1,1-dioxidotetrahydrothiophen-3-yl)-1H-pyrrolo[3,2-b]pyridine-6-carboxamide]
